Drawing on the NIST ThermoML archive (doi:10.1016/j.jct.2010.09.009), this text covers mass density for one molecule.

± gives the expanded uncertainty stated by the source.

The data set in a line: xn = mol fraction of the nth substance listed. The note with it: 101 kPa, Liquid, Vibrating tube method, x2 = 0.

Turning to `O` [water] + CCC[N+](CCC)(CCC)CCC.[Br-], the mass density by setting is: (278.15 K) 999.97 ± 0.05 kg/m3; (283.15 K) 999.7 ± 0.05 kg/m3.
